How the values were obtained:
old DBA/2J mice = assay: Reduction of intraocular pressure (IOP) after application to the eye, TONOLab tonometer; assay type: in vivo; conditions: versus basal IOP
Source text: The main risk factor in the glaucoma is represented by the high intraocular pressure (IOP). See for instance: Libby R. T. et al., Vis Neurosci. 2005 Sep.-Oct., 22(5):637-48 and Tomida I. et al., Br. J. Opthalmol. 2004 May, 88(5):708-13.
By using the animal model of old DBA/2J mice (see above) it has been evaluated the efficacy of the compound obtained in example 3.1 in reducing the IOP. As said, this compound has a good affinity towards the CB1 receptors in vitro (example 4) and a CB1 agonist action in vivo (example 5). The intraocular pressure has been determined by a TONOLab Tonometer (Tiolat Oy), as reported by M. E. Pease et al. in J. Glaucoma, 2006 December, 15(6):512-519. The compound was dispersed in the commercial emulsion Tocrisolve™, (Tocris), at a concentration of […] and applied to the eye of old DBA/2J mice (8-10 month age; basal IOP comprised between 19.0 and 22.5 mmHg). The applied emulsion volumes were such that the compound doses resulted, respectively, of 100 μg or 50 μg. WIN 55212-2 was dispersed in Tocrisolve™at the concentration of 5 mg/ml and was the reference cannabinoidergic compound. The determination of the ocular pressure was carried out every 30 minutes up to two hours starting from the administration. The obtained results (average of 6 measurements at each time for experimental groups of 8-10 animals for group/dose) are reported in Table 3. IOP decrease was expressed in percent with respect to the basal value.

men = conditions: local administration in the eye; cited from earlier work

## Cc1c(C(=O)c2cccc3ccccc23)c2cccc3c2n1[C@H](CN1CCOCC1)CO3 [WIN 55212-2]
Old DBA/2J mice; 50 μg to the eye in Tocrisolve, 30 minutes
  Intraocular Pressure Decrease: 4.3%
Old DBA/2J mice; 50 μg to the eye in Tocrisolve, 60 minutes
  Intraocular Pressure Decrease: 3.0%
Old DBA/2J mice; 50 μg to the eye in Tocrisolve, 90 minutes
  Intraocular Pressure Decrease: 2.0%
Old DBA/2J mice; 50 μg to the eye in Tocrisolve, 120 minutes
  Intraocular Pressure Decrease: 1.9%
Old DBA/2J mice; 100 μg to the eye in Tocrisolve, 30 minutes
  Intraocular Pressure Decrease: 23.1%
Old DBA/2J mice; 100 μg to the eye in Tocrisolve, 60 minutes
  Intraocular Pressure Decrease: 21.3%
Old DBA/2J mice; 100 μg to the eye in Tocrisolve, 90 minutes
  Intraocular Pressure Decrease: 18.1%
Old DBA/2J mice; 100 μg to the eye in Tocrisolve, 120 minutes
  Intraocular Pressure Decrease: 13.2%
men
  IOP reduction in men: significant IOP reduction
